Measured values published in patent publication US20220370553A1, “PREBIOTIC-INDUCED ANTI-TUMOR IMMUNITY” (Sanford Burnham Prebys Medical Discovery Institute, priority 2019, published 2022).

Assays:
Bacteroides spp. = experiment: Anaerobic fecal cultures with 1% prebiotic, 16S rDNA quantification; format: cell-based; conditions: fecal cultures of 12 healthy human subjects, 3-4 days at 37° C.
Experimental: Fecal samples derived from 12 healthy human subjects were cultivated in the presence or absence of 1% prebiotic. 16S rDNA sequences corresponding to Bifidobacterium, Bacteroides and Akkermansia muciniphila were quantified. Data are representative of three independent experiments. Graphs show the mean±s.e.m. *P<0.05, **P<0.005, ***P<0.001, ****P<0.0001 by one-way ANOVA with Tukey's correction.
Anaerobic fecal cultures. […] Anaerobic cultures (9% H2, 81% N2) were grown statically for 3-4 days at 37° C. and grown to approximate saturation.
Chemically-defined medium (CDM). CDM contains 50 mM HEPES, 2.2 mM KH2PO4, 10 mM Na2HPO4, 60 mM NaHCO3, 4 mM of each amino acid, except leucine (15 mM), 10 mL ATCC, Trace Mineral Supplement. CDM contained nucleoside bases (100 mg/L), inosine, xanthine, adenine, guanine, cytosine, thymidine and uracil (400 mg/L). CDM contained choline (100 mg/L), ascorbic acid (500 mg/L), lipoic acid (2 mg/L), hemin (1.2 mg/L) and myo-inositol (400 mg/L). Resazurin (1 mg/L) was added to visually monitor dissolved oxygen. The pH of the media was adjusted to 7.4.
Fecal samples derived from 12 healthy, vegetarian human subjects were cultivated in a chemically-defined medium the presence or absence of 1% prebiotic. Anaerobic cultures (9% H2, 81% N2) were grown statically for 3-4 days at 37° C. and grown to approximate saturation.

[1] = system: N-Ras mutant melanoma tumor cells (MaNRAS1); experiment: Growth of N-Ras mutant melanoma tumors with prebiotics with or without MEKi; format: in vivo, C57BL/6 mice; conditions: in the absence of MEKi; mucin 3% in water or inulin 15% in chow
Experimental: FIG. 7A C57BL/6 mice were injected (s.c.) with NRAS^Q61K mouse melanoma cells (1×10^6) (n=10). The mice were administered with either a control diet alone, or one supplemented with mucin (3%) in drinking water or inulin (15%) in chow starting 14 days prior to tumor inoculation. When tumors reached a volume of 10-20 mm^2, mice were treated with MEKi (PD325901) administered by gavage (10 mg/kg, daily), alone or in combination with inulin or mucin, as indicated. Tumor volume was assessed every 4 days. […] Data are representative of two independent experiments. Graphs show the mean±s.e.m. *P<0.05, **P<0.005, ***P<0.001, ****P<0.0001 by two-way ANOVA with Tukey's correction (A) or one-way ANOVA with Tukey's correction (B-D).
Animals and tumor models. […] Male 6-8-week-old mice were used for all experiments. […] All mice were fed an autoclaved chow diet ad libitum (LabDiet 5K67, Purina Foods). […] Mouse selection for experiments was not formally randomized or blinded. For tumor growth experiments, mice were injected subcutaneously (s.c.) with 1×10^6 tumor cells. Tumor size was measured twice a week for calculation of tumor volume. Tumors were weighed at the time of excision.
Mucin and inulin treatment. For mucin treatment, C57BL/6 mice were subjected to control or water supplemented with 3% mucin (Lee Biosolutions) prior to (14 days) and during tumor inoculation. Water was changed every other day. For inulin treatment, mice were received a diet (TD. 94048, AIN-93M, Purified Diet, ENVIGO) enriched with long-chain inulin by substituting all of sucrose and 5% of corn starch in the control diet or a modified diet (TD. 160256, Modified AIN-93M, Diet w 15% inulin, ENVIGO) prior to (14 days) and during tumor inoculation. Diets were changed 2 times a week.
Experiments were conducted to determine whether prebiotics impacted the effectiveness of MEK inhibitor (MEKi) treatment on tumor growth control and treatment resistance.

Yumm1.5 tumors = experiment: Flow cytometry of tumor-infiltrating immune cells in Yumm1.5 tumors; format: in vivo, C57BL/6 mice; conditions: 20 days following tumor inoculation
Source text: FIG. 2B, Quantification of tumor-infiltrating effector (CD44hi) CD4+, CD8+ and CD45+ T cells from mice treated as in FIG. 2A (n=10). FIG. 2C, Quantification of tumor-infiltrating, IFN-g-producing CD4+ T cells from mice treated as in FIG. 2A (n=10). FIG. 2D, Quantification of tumor-infiltrating total DCs and subsets in mice treated as in FIG. 2A (n=10). FIG. 2E, MFI of MHC class I and MHC class II on DCs from the tumors of mice treated as in FIG. 2A (n=10). […] Graphs show the mean s.e.m. *P<0.05, **P<0.005, ***P<0.001,****P<0.0001 by two-way ANOVA with Tukey's correction (A) and by one-way ANOVA with Tukey's correction (B-E).
(§1) Tumor digestion. Tumors were excised, minced, and digested with 1 mg/ml collagenase D (Roche) and 100 μg/ml DNase I (Sigma) at 37° C. for 1 h. Digests were then passed through a 70-μm cell strainer to generate a single-cell suspension. The cells were washed twice with PBS containing 2 mM EDTA, and then stained for flow cytometry.
(§2) Flow cytometry. Tumor-derived single-cell suspensions were washed twice with FACS staining buffer, fixed for 15 min with 1% formaldehyde in PBS, washed twice, and resuspended in FACS staining buffer. For intracellular cytokine staining, cells were resuspended in complete RPMI-1640 (containing 10 mM HEPES, 1% non-essential amino acids and L-glutamine, 1 mM sodium pyruvate, 10% heat-inactivated fetal bovine serum (FBS), and antibiotics) supplemented with 50 U/mL IL-2 (NCI), […] brefeldin A (BFA, Sigma), and incubated with phorbol myristate acetate (10 ng/ml) and ionomycin (0.5 μg/ml) at 37° C. The cells were then fixed and permeabilized using a Cytofix/Cytoperm Kit (BD Biosciences) before staining. Antibodies to the following proteins were used: CD45.2 (104), CD8a (53-6.7), CD4 (GK1.5), CD44 (IM7), TNF-α (MP6-XT22), IFN-γ (XMG1.2), CD11c (N418), CD11b (M1/70), MHC class II (M5/114.15.2), PDCA (129c1), and B220 (RA3-6B2) from BioLegend, and antibodies to IL-2 (JES6-5H4) and MHC class I (AF6-88.5.5.3) from eBioscience. All data were collected on an LSRFortessa (BD Biosciences) and analyzed using FlowJo Software (Tree Star).

[2] = system: MC-38 mouse colorectal cancer cells; experiment: Growth of MC-38 colorectal cancer tumors in prebiotic-fed mice; format: in vivo, C57BL/6 mice; conditions: 3% mucin in drinking water or 15% inulin diet from two weeks prior to inoculation
Source text: (§3) MC-38 mouse colorectal cancer cells (1×10^6) were inoculated, and diets were continued after inoculation.

[3] = system: MC-38 mouse colorectal cancer cells; experiment: Flow cytometry of tumor-infiltrating immune cells in MC-38 tumors; format: in vivo, C57BL/6 mice
Experimental: as §1, §2, §3

[4] = system: bone marrow-derived dendritic cells (BMDCs); experiment: Activation of bone marrow-derived dendritic cells in vitro; format: cell-based, murine; conditions: 24 h, 0.05 and 0.5 mg/ml
Source text: Data are representative of two independent experiments. Graphs show the mean±s.e.m. *P<0.05, **P<0.005, ***P<0.001, ****P<0.0001 one-way ANOVA with Tukey's correction.
Bone Marrow-Derived Dendritic Cells (BMDCs).

mucin
relative abundance of Bacteroides spp. (Bacteroides spp.): increased
control of N-Ras mutant tumors [1]: not
MHC class I and MHC class II on tumor-resident DCs (Yumm1.5 tumors): higher levels
dendritic cell subsets including pDCs and CD8a+ conventional DCs in tumors (Yumm1.5 tumors): increased
effector (CD44hi) CD4+ and CD8+ T cells, and CD45+ cells in tumors (Yumm1.5 tumors; compared to control mice): enrichment
growth of colon cancer MC-38 tumors [2]: not
CD4+ or CD8+ T cells, CD45+ cells, cytokine production, DCs and DC subsets in tumors [3]: No differences
CD40, CD80, MHC I and MHC II on BMDCs [4]: increased
